This note sets out measurements from patent US10220072B2, “Mesalamine for the treatment of cancer” (Cipla Limited, priority 2016, dated 2019).

Assay [1] concerns Human renal cell carcinoma cell line (A498). Nature of the assay: In vivo anti-tumor efficacy in xenograft model. Further details: species or system female athymic nude mice. As for the experimental part:
Healthy 10 female athymic nude mice were recruited for the donor cell inoculation. Animals were subcutaneously injected at flank region with 10 million A498 cells suspended in 200 μl of media and matrigel. Animals were monitored for solid tumor growth. […] Tumors were fragmented in to ˜30 mg size. […] Tumor bearing animals were selected from the experimental animals and grouped on basis of tumor size, into six groups containing 7 animals in each group. […] Group 3 received mesalamine at 250 mg/kg. [table] The tumor sizes were measured weekly twice from the date of tumor appearance till the end of the experiment. Tumor size was measured by digital vernier caliper (MITUTOYO) by measuring length (L=longest axis) and width (W=shortest axis). […] From the tumor volume data mean tumor volume and % tumor growth inhibition (% TGI) were determined.

In assay [2] the test system is 10 human tumor xenograft-derived cell suspensions or tumor cell lines of renal cancer. Nature of the assay: Clonogenic assay: ex vivo colony formation (anchorage independent growth) in semi-solid medium. To be noted: for IC50: Homo sapiens, mean across 10 renal cancer tumor models, test concentrations 0.0698 mM to 3 mM. The format is cell-based. As for the experimental part:
In the present study, mesalamine was characterized for their ability to inhibit anchorage independent growth and ex vivo colony formation of tumor cells in semi-solid medium. Mesalamine was tested against 10 human tumor xenograft-derived cell suspensions or tumor cell lines of renal cancer. Test concentrations ranged from 0.0698 mM to 3 mM.
Cell lines were routinely passaged one or twice weekly. All cells were grown at 37° C. in a humidified atmosphere with 5% CO2 in RPMI 1640 medium (Biochrom) supplemented with 10% (v/v) fetal calf serum and 0.1 mg/mL gentamicin. The percentage of viable cells was determined in a Neubauer-hemocytometer using trypan blue exclusion.
Tumor xenografts (patient-derived, as well as cell line-derived xenografts) were passaged as subcutaneous xenografts in NMRI nu/nu mice. At a tumor volume of 400-1000 mm^3 tumor-bearing mice were sacrificed and tumors were collected under sterile conditions without delay according to the relevant Oncotest SOPs and the relevant animal welfare guidelines published by the FELASA and the GV-SOLAS. Tumors were mechanically disaggregated and subsequently incubated with an enzyme cocktail consisting of collagenase type IV (41 U/mL), DNase I (125 U/mL), hyaluronidase type III (100 U/mL), and dispase II (1.0 U/mL) in RPMI 1640 medium (Life Technologies) at 37° C. for 60-120 minutes. Cells were passed through sieves of 100 μm and 40 μm mesh size (Cell Strainer, BD Falcon™), and washed with RPMI 1640 medium. The percentage of viable cells was determined in a Neubauer-hemocytometer using trypan blue exclusion. Aliquots of the cells were frozen down, and stored in liquid nitrogen. On each day of an experiment, a frozen aliquot of tumor cells was thawed and used for preparation of assay plates.
The clonogenic assay was carried out in a 96 well plate format using ultra low attachment plates. […] Cultures were incubated at 37° C. and 7.5% CO2 in a humidified atmosphere for 8 to 13 days and monitored closely for colony growth using an inverted microscope. […]

[3] abbreviates: G3, 250 mg/kg p.o. q.d.x21, Day 1.
Setting [4] is: G3, 250 mg/kg p.o. q.d.x21, Day 6.
[5] abbreviates: G3, 250 mg/kg p.o. q.d.x21, Day 9.
Where [6] appears, read: G3, 250 mg/kg p.o. q.d.x21, Day 13.
Setting [7] is: G3, 250 mg/kg p.o. q.d.x21, Day 16.
Setting [8] is: G3, 250 mg/kg p.o. q.d.x21, Day 20.
Setting [9] is: G2, 20 mg/kg p.o. q.d.x21 (sub-therapeutic dose), Day 1.
Setting [10] is: G2, 20 mg/kg p.o. q.d.x21 (sub-therapeutic dose), Day 6.
Setting [11] is: G2, 20 mg/kg p.o. q.d.x21 (sub-therapeutic dose), Day 9.
The mark [12] stands for this setting: G2, 20 mg/kg p.o. q.d.x21 (sub-therapeutic dose), Day 13.
The mark [13] stands for this setting: G2, 20 mg/kg p.o. q.d.x21 (sub-therapeutic dose), Day 16.
The mark [14] stands for this setting: G2, 20 mg/kg p.o. q.d.x21 (sub-therapeutic dose), Day 20.

Read-outs that look alike come from different tables or passages of the source.

In general, IC50 refers to the concentration that inhibits the measured activity by half. Regarding `Nc1ccc(O)c(C(=O)O)c1` [Mesalamine, 5-amino-2-hydroxybenzoic acid], the “Mean Tumor Growth Inhibition (% TGI)” value in assay [1] (setting [3]) turned out to be 1.56%; in assay [1] (setting [4]) it was 51.29%; in assay [1] (setting [5]), 46.01%; in assay [1] (setting [6]) it was 51.09%; in assay [1] (setting [7]), 47.87%; in assay [1] (setting [8]), 58.08%. Also, the “Mean Tumor Volume” value in assay [1] (setting [3]) came to 145.26 mm^3; in assay [1] (setting [4]), 161.68 mm^3; in assay [1] (setting [5]), 250.41 mm^3; in assay [1] (setting [6]), 301.82 mm^3; in assay [1] (setting [7]), 501.10 mm^3; in assay [1] (setting [8]), 536.78 mm^3. Further, in assay [1] (at the dose tested (250 mg/kg p.o. q.d.x21)), the “inhibiting tumor formation (anti-tumor efficacy by itself)” value is on record as “more than 50%”. In addition, the “anti-tumor efficacy compared with standard” value in assay [1] (mesalamine 250 mg/kg vs sunitinib 20 mg/kg, p.o. q.d.x21) was “comparable to sunitinib”. The half-inhibitory concentration (IC50) came out at 1210 µM in assay [2] (continuous exposure 8 to 13 days, read-out: mean relative IC50 value, inhibition of colony formation) and 1260 µM in assay [2] (read-out: second mean IC50 value printed in brackets after the mean relative IC50). Moreover, in assay [2] (responding tumor models), the “Bottom plateaus of the concentration-effect curves of responding tumor models” value is given as 0 to 18%.
As for `CCN(CC)CCNC(=O)c1c(C)[nH]c(/C=C2\C(=O)Nc3ccc(F)cc32)c1C` [Sunitinib], the “Mean Tumor Growth Inhibition (% TGI)” value in assay [1] (setting [9]) is given as 1.47%; in assay [1] (setting [10]), 47.31%; in assay [1] (setting [11]), 43.52%; in assay [1] (setting [12]), 44.80%; in assay [1] (setting [13]) it was 53.39%; in assay [1] (setting [14]), 50.78%. Moreover, the “Mean Tumor Volume” value in assay [1] (setting [9]) turned out to be 145.40 mm^3; in assay [1] (setting [10]), 174.90 mm^3; in assay [1] (setting [11]), 261.95 mm^3; in assay [1] (setting [12]) it was 340.62 mm^3; in assay [1] (setting [13]), 448.05 mm^3; in assay [1] (setting [14]), 630.25 mm^3.
